Experimental data taken from US20240041042A1, “1-(PYRIDYL)-5-AZINYLPYRAZOLE DERIVATIVES, AND THEIR USE FOR CONTROL OF UNDESIRED PLANT GROWTH” (Bayer Aktiengesellschaft, priority 2020, published 2024).
Like-named read-outs stand apart in the source and are kept apart here. Values belong to the compound of their own block, whether it stands above or below them.

Experiments:
Format in all cases: in vivo
[1] = test system: Alopecurus myosuroides (ALOMY); test: Post-emergence herbicidal action against ALOMY; conditions: visual rating about 3 weeks after treatment vs untreated controls (100% = plants have died, 0% = like control plants)
Method in brief: (§1)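 Greenhouse plants sprayed at the one-leaf stage, 2–3 weeks after sowing, with WP or EC formulations plus 0.5% additive at 600 l/ha water. Activity rated visually after about 3 weeks versus untreated controls (100% = dead, 0% = like control), at 320 g/ha or lower.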

[2] = test system: Matricaria inodora (MATIN); test: Pre-emergence herbicidal action against MATIN; conditions: dosage 320 g/ha
Method in brief: (§2)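 Dosages of 320 g/ha or less; pre-emergence; WP or EC in aqueous spray, 0.5% additive, 600 l/ha; greenhouse; visual % effect after ~3 wk relative to control pots.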

[3] = test system: Setaria viridis (SETVI); test: Pre-emergence herbicidal action against SETVI
Method in brief: as §2

[4] = test system: Verconica persica (VERPE); test: Post-emergence herbicidal action against VERPE
Method in brief: as §1

[5] = test system: Amaranthus retroflexus (AMARE); test: Post-emergence herbicidal action against AMARE
Method in brief: as §1

[6] = test system: Abutilon theophrasti (ABUTH); test: Post-emergence herbicidal action against ABUTH; conditions: visual rating about 3 weeks after treatment vs untreated controls (100% = plants have died, 0% = like control plants)
Method in brief: as §1

[7] = test system: Oryza sativa (ORYSA); conditions: pre-emergence, 80 g/ha, crop plant compatibility, in comparison to untreated controls
Method in brief: (§3)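 Crop injury rated visually in percent against untreated plants roughly 3 weeks after treatment (0% no effect, 100% plants dead). Compounds, as WP or EC with 0.5% additive in 600 l/ha water, were applied to the covering soil right after sowing; greenhouse growth. Suffixes a, b, c denote different dosages.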

[8] = test system: Zea mays (ZEAMX); conditions: pre-emergence, 80 g/ha, crop plant compatibility, in comparison to untreated controls
Method in brief: as §3

[9] = test system: Oryza sativa (ORYSA); conditions: crop plant compatibility
Method in brief: (§4)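 Test crops were treated 2 to 3 weeks after sowing, once they reached one leaf, by spraying compound in water with 0.5% additive at 600 l/ha. Visual scoring compared them with untreated controls roughly 3 weeks on, and appendices a, b and c denote different doses.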

[10] = test system: Pharbitis purpurea (PHBPU); test: Post-emergence herbicidal action against PHBPU
Method in brief: as §1

[11] = test system: Amaranthus retroflexus (AMARE); test: Pre-emergence herbicidal action against AMARE; conditions: visual scoring after about 3 weeks vs untreated controls
Method in brief: as §2

[12] = test system: Alopecurus myosuroides (ALOMY); test: Pre-emergence herbicidal action against ALOMY; conditions: scored visually after about 3 weeks, 100% = plants have died
Method in brief: as §2

[13] = test system: Echinochloa crus-galli (ECHCG); test: Pre-emergence herbicidal action against ECHCG
Method in brief: as §2

[14] = test system: Echinochloa crus-galli (ECHCG); test: Post-emergence herbicidal action against ECHCG
Method in brief: as §1

[15] = test system: Polygonum convolvulus (POLCO); test: Post-emergence herbicidal action against POLCO; conditions: dosage 320 g/ha
Method in brief: as §1

[16] = test system: Viola tricolor (VIOTR); test: Pre-emergence herbicidal action against VIOTR
Method in brief: as §2

[17] = test system: Setaria viridis (SETVI); test: Post-emergence herbicidal action against SETVI
Method in brief: as §1

[18] = test system: Avena fatua (AVEFA); test: Pre-emergence herbicidal action against AVEFA; conditions: 320 g/ha, visual scoring after about 3 weeks vs untreated controls
Method in brief: as §2

[19] = test system: Matricaria inodora (MATIN); test: Post-emergence herbicidal action against MATIN; conditions: dosage 80 g/ha
Method in brief: as §1

[20] = test system: Zea mays (ZEAMX); conditions: for Post-emergence action against ZEAMX in %: crop plant compatibility, 80 g/ha, effect vs untreated controls
Method in brief: as §4

[21] = test system: Lolium rigidum (LOLRI); test: Post-emergence herbicidal action against LOLRI
Method in brief: as §1

[22] = test system: Verconica persica (VERPE); test: Pre-emergence herbicidal action against VERPE; conditions: dosage 320 g/ha
Method in brief: as §2

[23] = test system: Viola tricolor (VIOTR); test: Post-emergence herbicidal action against VIOTR
Method in brief: as §1

[24] = test system: Pharbitis purpurea (PHBPU); test: Pre-emergence herbicidal action against PHBPU; conditions: dosage 320 g/ha
Method in brief: as §2

[25] = test system: Lolium rigidum (LOLRI); test: Pre-emergence herbicidal action against LOLRI
Method in brief: as §2

[26] = test system: Avena fatua (AVEFA); test: Post-emergence herbicidal action against AVEFA; conditions: 80 g/ha, visual rating about 3 weeks after treatment
Method in brief: as §1

[27] = test system: Polygonum convolvulus (POLCO); test: Pre-emergence herbicidal action against POLCO; conditions: dosage 320 g/ha
Method in brief: as §2

[28] = 80 g/ha, visual rating about 3 weeks after treatment vs untreated controls (100% = plants have died, 0% = like control plants)
[29] = 80 g/ha, effect in comparison to untreated controls

Pre-emergence action against ORYSA in % [7]: 20%
Pre-emergence action against ZEAMX in % [8]: 10%
Post-emergence action against ORYSA in % [9, 29]: 0%
SMILES: CCOC(=O)CSc1nn(-c2ccccn2)c(-c2cncc(F)c2)c1I [Example I-152]
Post-emergence action against ALOMY in % ([1]; 320 g/ha): 80%
Pre-emergence action against MATIN in % [2]: 90%
Pre-emergence action against SETVI in % ([3]; dosage 320 g/ha): 90%
Post-emergence action against VERPE in % ([4]; 320 g/ha, VERPE): 80%
Post-emergence action against AMARE in % [5, 28]: 80%
Post-emergence action against AMARE in % ([5]; 320 g/ha, visual rating about 3 weeks after treatment): 80%
Post-emergence action against ABUTH in % ([6]; 320 g/ha): 80%
Post-emergence action against PHBPU in % ([10]; dosage 80 g/ha): 80%
Post-emergence action against PHBPU in % ([10]; dosage 320 g/ha): 90%
Pre-emergence action against AMARE in % ([11]; 320 g/ha): 100%
Pre-emergence action against ALOMY ([12]; 320 g/ha): 80%
Pre-emergence action against ECHCG in % ([13]; dosage 320 g/ha): 90%
Post-emergence action against ECHCG in % ([14]; dosage 80 g/ha): 80%
Post-emergence action against ECHCG in % ([14]; dosage 320 g/ha): 80%
Post-emergence action against POLCO in % [15]: 80%
Pre-emergence action against VIOTR in % ([16]; 320 g/ha, Viola tricolor): 90%
Pre-emergence action against VIOTR in % ([16]; dosage 80 g/ha): 80%
Post-emergence action against SETVI in % ([17]; dosage 80 g/ha): 80%
Post-emergence action against SETVI in % ([17]; dosage 320 g/ha): 80%

Pre-emergence action against ORYSA in % [7]: 20%
Post-emergence action against ORYSA in % ([9]; 20 g/ha, effect vs untreated controls): 0%
Post-emergence action against ORYSA in % [9, 29]: 0%
Post-emergence action against ZEAMX in % (crop plant compatibility) ([20]; 20 g/ha, ZEAMX, effect in comparison to untreated controls): 10%
Post-emergence action against ZEAMX in % [20]: 10%
SMILES: COCCOC(=O)[C@@H](C)Oc1nn(-c2ncccc2F)c(-c2ccc(F)nc2)c1Br [Example I-35]
Post-emergence action against ALOMY in % ([1]; 80 g/ha): 90%
Pre-emergence action against MATIN in % [2]: 100%
Pre-emergence action against AVEFA in % [18]: 100%
Pre-emergence action against SETVI in % ([3]; dosage 80 g/ha): 100%
Pre-emergence action against SETVI in % ([3]; dosage 320 g/ha): 100%
Post-emergence action against VERPE in % ([4]; dosage 80 g/ha): 100%
Post-emergence action against AMARE in % [5, 28]: 100%
Post-emergence action against MATIN in % [19]: 90%
Post-emergence action against ABUTH in % ([6]; 80 g/ha): 90%
Post-emergence action against LOLRI in % ([21]; dosage 80 g/ha): 90%
Pre-emergence action against VERPE in % [22]: 100%
Post-emergence action against VIOTR in % ([23]; 80 g/ha): 90%
Pre-emergence action against AMARE in % ([11]; 80 g/ha): 100%
Pre-emergence action against AMARE in % ([11]; 320 g/ha): 100%
Pre-emergence action against ALOMY ([12]; 80 g/ha): 90%
Pre-emergence action against ALOMY ([12]; 320 g/ha): 100%
Pre-emergence action against ECHCG in % ([13]; dosage 80 g/ha): 90%
Pre-emergence action against ECHCG in % ([13]; dosage 320 g/ha): 100%
Pre-emergence action against PHBPU in % [24]: 90%
Post-emergence action against ECHCG in % ([14]; dosage 80 g/ha): 90%
Pre-emergence action against LOLRI in % ([25]; dosage 80 g/ha): 90%
Pre-emergence action against LOLRI in % ([25]; dosage 320 g/ha): 100%
Pre-emergence action against VIOTR in % ([16]; 320 g/ha, Viola tricolor): 100%
Pre-emergence action against VIOTR in % ([16]; dosage 80 g/ha): 100%
Post-emergence action against SETVI in % ([17]; dosage 80 g/ha): 100%
Post-emergence action against AVEFA in % [26]: 100%
Pre-emergence action against POLCO in % [27]: 90%

Pre-emergence action against ORYSA in % [7]: 20%
Pre-emergence action against ZEAMX in % [8]: 0%
Post-emergence action against ORYSA in % [9, 29]: 10%
Post-emergence action against ZEAMX in % [20]: 0%
SMILES: COCCOC(=O)COc1nn(-c2ncccc2C(F)(F)F)c(-c2ccc(F)nc2)c1Cl [Example I-362]
Post-emergence action against ALOMY in % ([1]; 320 g/ha): 90%
Pre-emergence action against SETVI in % ([3]; dosage 320 g/ha): 80%
Post-emergence action against LOLRI in % ([21]; dosage 320 g/ha): 80%
Post-emergence action against VIOTR in % ([23]; 80 g/ha): 80%
Post-emergence action against VIOTR in % ([23]; 320 g/ha): 80%
Post-emergence action against PHBPU in % ([10]; dosage 320 g/ha): 80%
Pre-emergence action against AMARE in % ([11]; 320 g/ha): 90%
Pre-emergence action against ALOMY ([12]; 320 g/ha): 100%
Post-emergence action against ECHCG in % ([14]; dosage 320 g/ha): 80%
Pre-emergence action against LOLRI in % ([25]; dosage 320 g/ha): 100%
Pre-emergence action against VIOTR in % ([16]; 320 g/ha, Viola tricolor): 100%
Post-emergence action against SETVI in % ([17]; dosage 320 g/ha): 80%
Pre-emergence action against POLCO in % [27]: 80%
